From patent US20200147037A1, “NEW TREATMENT OF BRAIN CANCER” (priority 2017, published 2020)

What was measured:
glioblastoma = details: intracranial pump; WANG et al. 2018; cited from earlier work
[1] = tested on: A549 highly metastatic human lung tumor; details: Paclitaxel 25 μM

Row | Compound | increase in survival (glioblastoma) | % of embryo death [1] | Tumor weight [1] | reduction of brain metastases amount compared to controls [1]
1 | CC(C)C[C@H](NC(=O)[C@H](Cc1ccccc1)NC(=O)c1cnccn1)B(O)O [Bortezomib] | 40% | – | – | –
2 | CC(=O)O[C@H]1C(=O)[C@@]2(C)[C@H]([C@H](OC(=O)c3ccccc3)[C@]3(O)C[C@H](OC(=O)[C@H](O)[C@@H](NC(=O)c4ccccc4)c4ccccc4)C(C)=C1C3(C)C)[C@]1(OC(C)=O)CO[C@@H]1C[C@@H]2O [Paclitaxel, paclitaxel] | – | 24%, N = 21 | 20.558 ± 1.902 mg | 61%
